Measured values published in PubChem BioAssay (NCI).
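Method: 48-hour compound exposure of cells in 96-well plates, five concentrations, linear interpolation of endpoints. TGI: total growth inhibition.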

Experiments:
Assay in all cases: NCI tumour cell line growth inhibition, 48 h
786-0 renal = test system: 786-0 renal
A549 NSCLC = test system: A549 NSCLC
ACHN renal = test system: ACHN renal
BT-549 breast = test system: BT-549 breast
CAKI-1 renal = test system: CAKI-1 renal
CCRF-CEM leukemia = test system: CCRF-CEM leukemia
COLO 205 colon = test system: COLO 205 colon
DU-145 prostate = test system: DU-145 prostate
EKVX NSCLC = test system: EKVX NSCLC
HCC-2998 colon = test system: HCC-2998 colon
HCT-116 colon = test system: HCT-116 colon
HCT-15 colon = test system: HCT-15 colon
HOP-62 NSCLC = test system: HOP-62 NSCLC
HS 578T breast = test system: HS 578T breast
HT29 colon = test system: HT29 colon
IGROV1 ovarian = test system: IGROV1 ovarian
K-562 leukemia = test system: K-562 leukemia
KM12 colon = test system: KM12 colon
LOX IMVI melanoma = test system: LOX IMVI melanoma
M14 melanoma = test system: M14 melanoma
MALME-3M melanoma = test system: MALME-3M melanoma
MCF7 breast = test system: MCF7 breast
MDA-MB-231 breast = test system: MDA-MB-231 breast
MDA-MB-435 = test system: MDA-MB-435
MDA-N = test system: MDA-N
MOLT-4 leukemia = test system: MOLT-4 leukemia
NCI-H226 lung = test system: NCI-H226 lung
NCI-H23 lung = test system: NCI-H23 lung
NCI-H460 lung = test system: NCI-H460 lung
NCI-H522 lung = test system: NCI-H522 lung
NCI/ADR-RES ovarian = test system: NCI/ADR-RES ovarian
OVCAR-3 ovarian = test system: OVCAR-3 ovarian
OVCAR-4 ovarian = test system: OVCAR-4 ovarian
OVCAR-5 ovarian = test system: OVCAR-5 ovarian
OVCAR-8 ovarian = test system: OVCAR-8 ovarian
PC-3 prostate = test system: PC-3 prostate
RPMI-8226 leukemia = test system: RPMI-8226 leukemia
RXF 393 renal = test system: RXF 393 renal
SF-268 CNS = test system: SF-268 CNS
SF-295 CNS = test system: SF-295 CNS
SF-539 CNS = test system: SF-539 CNS
SK-MEL-2 melanoma = test system: SK-MEL-2 melanoma
SK-MEL-28 melanoma = test system: SK-MEL-28 melanoma
SK-MEL-5 melanoma = test system: SK-MEL-5 melanoma
SK-OV-3 ovarian = test system: SK-OV-3 ovarian
SN12C renal = test system: SN12C renal
SNB-19 CNS = test system: SNB-19 CNS
SNB-75 CNS = test system: SNB-75 CNS
SR leukemia = test system: SR leukemia
SW-620 colon = test system: SW-620 colon
T-47D breast = test system: T-47D breast
TK-10 renal = test system: TK-10 renal
U251 CNS = test system: U251 CNS
UACC-257 melanoma = test system: UACC-257 melanoma
UO-31 renal = test system: UO-31 renal

Cc1ccc(/C=C/c2nnc(N/N=C/c3ccc4c(c3)OCO4)[nH]c2=O)cc1
TGI (786-0 renal): 27.9 µM
TGI (A549 NSCLC): > 100 µM
TGI (ACHN renal): 65.6 µM
TGI (BT-549 breast): 33.9 µM
TGI (CAKI-1 renal): 91.8 µM
TGI (CCRF-CEM leukemia): 45.4 µM
TGI (COLO 205 colon): > 100 µM
TGI (DU-145 prostate): 38.7 µM
TGI (EKVX NSCLC): > 100 µM
TGI (HCC-2998 colon): 79.8 µM
TGI (HCT-116 colon): 45.9 µM
TGI (HCT-15 colon): > 100 µM
TGI (HOP-62 NSCLC): 33.7 µM
TGI (HS 578T breast): 34.6 µM
TGI (HT29 colon): 53.7 µM
TGI (IGROV1 ovarian): 41.8 µM
TGI (K-562 leukemia): 70.7 µM
TGI (KM12 colon): 46.9 µM
TGI (LOX IMVI melanoma): 37.7 µM
TGI (M14 melanoma): > 100 µM
TGI (MALME-3M melanoma): > 100 µM
TGI (MCF7 breast): 51.2 µM
TGI (MDA-MB-231 breast): 29.9 µM
TGI (MDA-MB-435): > 100 µM
TGI (MDA-N): 62.4 µM
TGI (MOLT-4 leukemia): > 100 µM
TGI (NCI-H226 lung): 72.5 µM
TGI (NCI-H23 lung): 32.5 µM
TGI (NCI-H460 lung): 57.6 µM
TGI (NCI-H522 lung): > 100 µM
TGI (NCI/ADR-RES ovarian): 37.5 µM
TGI (OVCAR-3 ovarian): 36.2 µM
TGI (OVCAR-4 ovarian): 36.8 µM
TGI (OVCAR-5 ovarian): > 100 µM
TGI (OVCAR-8 ovarian): 34.7 µM
TGI (PC-3 prostate): 43.3 µM
TGI (RPMI-8226 leukemia): > 100 µM
TGI (RXF 393 renal): > 100 µM
TGI (SF-268 CNS): 33.9 µM
TGI (SF-295 CNS): > 100 µM
TGI (SF-539 CNS): 42.4 µM
TGI (SK-MEL-2 melanoma): 78.9 µM
TGI (SK-MEL-28 melanoma): 30.9 µM
TGI (SK-MEL-5 melanoma): > 100 µM
TGI (SK-OV-3 ovarian): 93.2 µM
TGI (SN12C renal): 38.1 µM
TGI (SNB-19 CNS): 37.4 µM
TGI (SNB-75 CNS): 31.2 µM
TGI (SR leukemia): 40.9 µM
TGI (SW-620 colon): 42.6 µM
TGI (T-47D breast): > 100 µM
TGI (TK-10 renal): 58.6 µM
TGI (U251 CNS): 33.6 µM
TGI (UACC-257 melanoma): > 100 µM
TGI (UO-31 renal): > 100 µM
